Assay [1] can be described thus: K' value on the basis of IAM (immobilized artificial membrane) retention. The assay is classed as functional.
Assay [2] deals with Neuropeptide FF receptor 2 (Rattus norvegicus, UniProt Q9EQD2). The assay is described as follows: Binding affinity towards NPFF receptor was measured by the displacement of [125I]-YLFQPQRF-NH2. (Displacement assays read how much labelled ligand stays bound in the presence of the test substance.)

Where a SMILES comes first, the peptide text is derived from it. The star is where a group is joined. Dansyl = CN(C)c1cccc2c(S(=O)(=O)*)cccc12; Desaminotyrosyl = O=C(CCc1ccc(O)cc1)*

A word on the Ki: it is a dissociation constant, usually derived from enzyme kinetics or from competition with a known ligand.

Sequence of Neuropeptide FF receptor 2 (Q9EQD2 whole entry): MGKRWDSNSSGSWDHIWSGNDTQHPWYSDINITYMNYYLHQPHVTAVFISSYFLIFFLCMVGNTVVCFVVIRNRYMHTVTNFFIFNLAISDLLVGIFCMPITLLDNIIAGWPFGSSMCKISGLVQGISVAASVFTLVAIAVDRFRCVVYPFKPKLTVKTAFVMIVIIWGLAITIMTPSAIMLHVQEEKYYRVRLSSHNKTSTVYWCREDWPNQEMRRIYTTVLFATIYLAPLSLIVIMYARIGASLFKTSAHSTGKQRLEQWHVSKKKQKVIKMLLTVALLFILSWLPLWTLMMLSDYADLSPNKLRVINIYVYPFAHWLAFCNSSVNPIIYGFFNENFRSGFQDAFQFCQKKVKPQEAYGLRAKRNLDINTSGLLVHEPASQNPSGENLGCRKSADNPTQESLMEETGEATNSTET

In the case of `CN(C)c1cccc2c(S(=O)(=O)NCC(=O)N[C@@H](CO)C(=O)N[C@@H](CCCN=C(N)N)C(N)=O)cccc12` (Dansyl-Gly-Ser-Arg-NH2), the kIAM' in assay [1] turned out to be 8. In addition, in assay [2], affinity was put at a Ki of 1400 nM.

As to `CC(C)C[C@H](NC(=O)[C@H](Cc1ccccc1)NC(=O)CCc1ccc(O)cc1)C(=O)N[C@@H](Cc1ccccc1)C(=O)N[C@@H](CCC(N)=O)C(=O)N1CCC[C@H]1C(=O)N[C@@H](CCC(N)=O)C(=O)N[C@@H](CCCNC(=N)N)C(N)=O` (Desaminotyrosyl-FLFQPQR-NH2), affinity in assay [2] was put at a Ki of 840 nM.

With `CN(C)c1cccc2c(S(=O)(=O)N3CCC[C@H]3C(=O)N[C@@H](CCC(N)=O)C(=O)N[C@@H](CCCNC(=N)N)C(N)=O)cccc12` [DANSYLPQRAMIDE], the kIAM' in assay [1] amounted to 5.9. The affinity in assay [2] corresponds to a Ki of 13600 nM.

For the origin of these results see ChEMBL document CHEMBL1134477, “Combinatorial lead optimization of a neuropeptide FF antagonist” (J Med Chem, 2001).
